Source: PubChem BioAssay AID2060910 (Molecular Pharmacology Branch, DTP, NCI, 2025)
pIC50: −log10 of the molar value.

Tested on: 242566-281-R-J2-PDC complex spheroid viability
Assay: Anticancer human tumor 242566-281-R-J2-PDC patient-derived pancreatic carcinoma cell line growth inhibition [RAS]
Details: for pIC50: curve of first compound; for viability, T/C: stronger effect = lower value; active = viability on the fitted dose curve at most 10% of control; inactive = the rest
Description: RAS pathway inhibitors in Combinations in Complex Spheroids
A high-throughput screen of multi-cell type tumor spheroids was designed to identify active combinations of RAS pathway inhibitors and targeted small molecules. Complex spheroids include a stromal component modeled by human endothelial cells (HUVEC) and fibroblasts modeled by human mesenchymal stem cells (MSCs). The concentration ranges selected for each drug and investigational agent were based upon clinically achievable concentrations if the clinical Cmax of the agent was known.
Compounds. The drugs and investigational agents: abemaciclib (NSC768073), cobimetinib (NSC768068), divarasib (GDC6063, NSC841802), docetaxel (NSC628503), GDC-1971 (RLY-1971, NSC841576), gemcitabine (NSC613327), inavolisib (NSC800729), ipatasertib (NSC767898), KB-0742 (NSC834161), MRTX-1133 (NSC836407), osimertinib (NSC779217), RMC-4630 (NSC839698), RMC-6236 (NSC851965), RMC-6291 (NSC852671), Ro-3306 (NSC812927), sapanisertib (NSC764658), SN-38 (NSC673596), staurosporine (NSC755774), SY5609 (NSC837396), and tovorafenib (DAY101, NSC766906), were obtained from the National Cancer Institute (NCI) Developmental Therapeutics Program Chemical Repository. The FDA-approved anticancer drug set is available from the NCI Developmental Therapeutics Program. […] The stock solutions were prepared in dimethyl sulfoxide (DMSO, Sigma-Aldrich, St. Louis, MO, cat. D2650) at 800-fold the tested concentration and stored at -70 degrees C prior to their use. All drugs and investigational agents were tested over a range starting from a high concentration at or near the clinical Cmax and decreasing in half-log increments. If the clinical Cmax for an agent had not been determined, the highest concentration tested was 10 microM.
Cell Culture. All cells were maintained in an incubator at 37 degrees C and 5% CO2 with 95% humidity. The PDC lines were cultured according to standard operating procedures established by the NCI PDMR. All PDCs were thawed and cultured in Matrigel-coated flasks prepared with a working solution of 1X Ham's F-12 nutrient mix, without supplementation (Invitrogen, Waltham, MA, cat. 11765054), 100 U/mL penicillin-streptomycin (Invitrogen, cat. 15140122), and 2.5% Matrigel (Corning Inc., Corning, NY, cat. 354248) for the first three passages. The 362531-283-R-J2-PDC and 782815-120-R-J1-PDC lines were cultured in 6C/Colon 1B media, which includes advanced DMEM/F-12 (Thermo Fisher Scientific, cat. 12634028), 10 mM HEPES (Thermo Fisher Scientific, cat. 15630080), 1X GlutaMAX supplement (Thermo Fisher Scientific, cat. 35050061), 0.1 mg/mL primocin (InvivoGen, San Diego, CA, cat. ant-pm-2), 10% defined fetal bovine serum, heat inactivated (HyClone Laboratories Inc., Logan, UT, cat. SH30070.03HI), 50% L-WRN conditioned media (ATCC, cat. CRL-3276), 1.25 mM N-Acetyl-L-cysteine (Sigma-Aldrich, cat. A9165), 10 mM nicotinamide (Sigma-Aldrich, cat. N0636), 1X B-27 supplement (Thermo Fisher Scientific, cat. 17504044), 1X N-2 supplement (Thermo Fisher Scientific, cat. 17502048), 50 ng/mL human EGF (Thermo Fisher Scientific, cat. PHG0311), and 10 microM Y-27632 dihydrochloride (Tocris Bioscience, cat. 1254). The K12877-001-R-J1-PDC line was cultured in 6I media, which includes all 6C/Colon 1B media plus 10 ng/mL human FGF-10 (PeproTech, cat. 100-26), 1 ng/mL human FGF-2 (PeproTech, cat. 100-18B), 1 µM prostaglandin E2 (Tocris Bioscience, cat. 2296), […] hydrocortisone (Sigma-Aldrich, cat. H4001), and […] bovine insulin (Sigma-Aldrich, cat. I6634). The K86415-001-R-J1-PDC line was cultured in 6D media, which includes all 6C/Colon 1B media components minus the L-WRN conditioned media. The 485176-168-R4-J1-PDC was cultured in PANC media, which includes all 6C/Colon 1B media plus 100 ng/mL human FGF-10 (PeproTech, cat. 100-26), 500 nM SB-431542 (Selleckchem, cat. S1067), and 10 nM gastrin (Tocris Bioscience, cat. 3006). […]

[1] = second compound 0.0316 µM, first compound 0.0316 µM
[2] = second compound 0.0316 µM, first compound 0.1 µM
[3] = second compound 0.0316 µM, first compound 0.316 µM
[4] = second compound 0.0316 µM, first compound 1 µM
[5] = second compound 0.0316 µM, first compound 3.16 µM
[6] = second compound 0.0316 µM, first compound 10 µM
[7] = second compound 0.1 µM, first compound 0.0316 µM
[8] = second compound 0.1 µM, first compound 0.1 µM
[9] = second compound 0.1 µM, first compound 0.316 µM
[10] = second compound 0.1 µM, first compound 1 µM
[11] = second compound 0.1 µM, first compound 3.16 µM
[12] = second compound 0.1 µM, first compound 10 µM
[13] = second compound 0.316 µM, first compound 0.0316 µM
[14] = second compound 0.316 µM, first compound 0.1 µM
[15] = second compound 0.316 µM, first compound 0.316 µM
[16] = second compound 0.316 µM, first compound 1 µM
[17] = second compound 0.316 µM, first compound 3.16 µM
[18] = second compound 0.316 µM, first compound 10 µM
[19] = second compound 1 µM, first compound 0.0316 µM
[20] = second compound 1 µM, first compound 0.1 µM
[21] = second compound 1 µM, first compound 0.316 µM
[22] = second compound 1 µM, first compound 1 µM
[23] = second compound 1 µM, first compound 3.16 µM
[24] = second compound 1 µM, first compound 10 µM
[25] = second compound 3.16 µM, first compound 0.0316 µM
[26] = second compound 3.16 µM, first compound 0.1 µM
[27] = second compound 3.16 µM, first compound 0.316 µM
[28] = second compound 3.16 µM, first compound 1 µM
[29] = second compound 3.16 µM, first compound 3.16 µM
[30] = second compound 3.16 µM, first compound 10 µM
[31] = second compound 10 µM, first compound 0.0316 µM
[32] = second compound 10 µM, first compound 0.1 µM
[33] = second compound 10 µM, first compound 0.316 µM
[34] = second compound 10 µM, first compound 1 µM
[35] = second compound 10 µM, first compound 3.16 µM
[36] = second compound 10 µM, first compound 10 µM
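Note: spheroids exposed to compound for 7 days before readout.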
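Throughout, for viability, T/C: 100% = DMSO vehicle control wells.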

CCC(CC)c1cc(NC2CCC(N)C2)n2nccc2n1 (stereo unspecified) + C#Cc1c(F)ccc2cc(O)cc(-c3ncc4c(N5CC6CCC(C5)N6)nc(OCC56CCCN5CC(F)C6)nc4c3F)c12
5.72: pIC50 (second compound 0.1 µM)
5.58: pIC50 (second compound 0.0316 µM)
5.93: pIC50 (second compound 10 µM)
5.84: pIC50 (second compound 0.316 µM)
active: viability, T/C [6] 1.05% | viability, T/C [12] 0.89% | viability, T/C [18] 0.98% | viability, T/C [24] 0.85% | viability, T/C [30] 0.86% | viability, T/C [36] 0.55%
inactive: viability, T/C [1] 85.9% | viability, T/C [2] 109% | viability, T/C [3] 107% | viability, T/C [4] 88.9% | viability, T/C [5] 42.2% | viability, T/C [7] 79.1% | viability, T/C [8] 92.1% | viability, T/C [9] 84.7% | viability, T/C [10] 69.3% | viability, T/C [11] 33.9% | viability, T/C [13] 83.6% | viability, T/C [14] 85.5% | viability, T/C [15] 73.3% | viability, T/C [16] 63.4% | viability, T/C [17] 26.3% | viability, T/C [19] 68.2% | viability, T/C [20] 67.6% | viability, T/C [21] 58.5% | viability, T/C [22] 50.6% | viability, T/C [23] 14.8% | viability, T/C [25] 58% | viability, T/C [26] 60.2% | viability, T/C [27] 56.1% | viability, T/C [28] 58.6% | viability, T/C [29] 11.1% | viability, T/C [31] 59.8% | viability, T/C [32] 54.8% | viability, T/C [33] 52.3% | viability, T/C [34] 58.1% | viability, T/C [35] 11.5%
5.91: pIC50 (second compound 3.16 µM)
6.05: pIC50 (second compound 1 µM)

Cc1nc(N2CCC3(CC2)COC(C)C3N)c(CO)nc1Sc1ccnc(N)c1Cl (stereo unspecified) + C#Cc1c(F)ccc2cc(O)cc(-c3ncc4c(N5CC6CCC(C5)N6)nc(OCC56CCCN5CC(F)C6)nc4c3F)c12
6.74: pIC50 (second compound 0.316 µM)
> 7.50: pIC50 (second compound 3.16 µM) | pIC50 (second compound 10 µM)
7.21: pIC50 (second compound 1 µM)
inactive: viability, T/C [1] 69.6% | viability, T/C [2] 81% | viability, T/C [3] 62.2% | viability, T/C [4] 40.9% | viability, T/C [5] 37.8% | viability, T/C [6] 43.5% | viability, T/C [7] 80.3% | viability, T/C [8] 65.8% | viability, T/C [9] 51.1% | viability, T/C [10] 43% | viability, T/C [11] 34.5% | viability, T/C [12] 43% | viability, T/C [13] 69.9% | viability, T/C [14] 54.3% | viability, T/C [15] 47.1% | viability, T/C [16] 38.9% | viability, T/C [17] 37% | viability, T/C [18] 36.5% | viability, T/C [19] 58.1% | viability, T/C [20] 45.8% | viability, T/C [21] 36.6% | viability, T/C [22] 34.6% | viability, T/C [23] 31.2% | viability, T/C [24] 41.1% | viability, T/C [25] 48.4% | viability, T/C [26] 49.9% | viability, T/C [27] 40.9% | viability, T/C [28] 35.1% | viability, T/C [29] 42.8% | viability, T/C [30] 44.5% | viability, T/C [31] 50% | viability, T/C [32] 46.6% | viability, T/C [33] 39.4% | viability, T/C [34] 42.9% | viability, T/C [35] 41.4% | viability, T/C [36] 38.4%
6.47: pIC50 (second compound 0.1 µM)
6.22: pIC50 (second compound 0.0316 µM)

NC1c2ccccc2OC12CCN(c1cnc3c(N4CCCc5ncccc54)n[nH]c3n1)CC2 (stereo unspecified) + C#Cc1c(F)ccc2cc(O)cc(-c3ncc4c(N5CC6CCC(C5)N6)nc(OCC56CCCN5CC(F)C6)nc4c3F)c12
6.79: pIC50 (second compound 0.0316 µM)
7.28: pIC50 (second compound 0.1 µM)
inactive: viability, T/C [1] 72.3% | viability, T/C [2] 56.2% | viability, T/C [3] 41.6% | viability, T/C [4] 33.1% | viability, T/C [5] 29.7% | viability, T/C [6] 22.9% | viability, T/C [7] 52.3% | viability, T/C [8] 49% | viability, T/C [9] 36.8% | viability, T/C [10] 28.4% | viability, T/C [11] 34.1% | viability, T/C [12] 20.3% | viability, T/C [13] 40.6% | viability, T/C [14] 43% | viability, T/C [15] 36.1% | viability, T/C [16] 35.7% | viability, T/C [17] 31.8% | viability, T/C [18] 17.3% | viability, T/C [19] 32.2% | viability, T/C [20] 37.8% | viability, T/C [21] 36.3% | viability, T/C [22] 29% | viability, T/C [23] 34% | viability, T/C [24] 18.7% | viability, T/C [25] 35.2% | viability, T/C [26] 38.1% | viability, T/C [27] 39.5% | viability, T/C [28] 33.7% | viability, T/C [29] 34.9% | viability, T/C [30] 16.2% | viability, T/C [31] 38.1% | viability, T/C [32] 36.9% | viability, T/C [33] 39.6% | viability, T/C [34] 33% | viability, T/C [35] 35.5% | viability, T/C [36] 10.4%
> 7.50: pIC50 (second compound 0.316 µM) | pIC50 (second compound 1 µM) | pIC50 (second compound 3.16 µM) | pIC50 (second compound 10 µM)
